Results taken from paper PMC8954547, “Nonpeptidic Z360-Analogs Tagged with Trivalent Radiometals as Anti-CCK2R Cancer Theranostic Agents: A Preclinical Study” (Pharmaceutics, 2022).
Where “and” joins values, the source holds several entries; their conditions need not be identical. Equal entries are not always repeated.

How the values were obtained:
[1] = Radioligand stability in mice (radio-HPLC of blood and urine); assay type: in vivo; settings: mice blood collected 5 min pi; mean ± SD
Procedure: The formation of radiometabolites which can be detected in the blood was tested in blood samples collected 5 min post-injection (pi) of each of the radioligands [^67Ga]Ga/[^111In]In/[^177Lu]Lu-GAS1/3 and [^67Ga]Ga/[^111In]In-GAS2. For this study, in-house male Swiss albino mice (body weight: 30 ± 5 g, provided by the NCSR “Demokritos” Animal House) were used in groups of three. The animals received, through the tail vein, a 100-μL bolus containing each radioligand tested (2.5–3 nmol of the total conjugate in vehicle: saline/EtOH 9/1 v/v, corresponding to: up to 11 MBq for In-111, up to 13 MBq for Ga-67 and up to 74 MBq for Lu-177). Mice were euthanized, and blood was collected directly from the heart using a prechilled penicillin syringe and transferred in a prechilled EDTA-containing Eppendorf Protein LoBind® tube on ice (40 µL, 50 mM Na2EDTA solution). After centrifugation (10 min, 2000× g/4 °C, in a Hettich, Universal 320R, centrifuge), the blood plasma was collected, mixed with chilled MeCN in a 1/1 v/v ratio and centrifuged again (10 min, 15,000× g/4 °C). Supernatants were collected and concentrated to a small volume (≈50–100 μL) under a gentle N2-flux at 40 °C. They were then diluted with physiological saline (≈400 μL) and filtered through a Millex GV filter (0.22 μm, 13 mm Ø, Millipore, Milford, CT, USA). Aliquots of the filtrate were analyzed by radio-RP-HPLC using a Waters Symmetry Shield RP18 cartridge column (5 μm, 3.9 mm × 20 mm) eluted at a flow rate of 1.0 mL/min with the following gradient: 100% A/0% B to 55% A/45% B in 45 min; A = 0.1% aqueous TFA (v/v) and B = MeCN (system 2). The elution time (tR) of each parent radioligand was determined by coinjection of blood samples with an aliquot of the labeling solution on the HPLC column. Results were calculated as the average percentage of intact radioligand ± SD derived from three independent experiments.
Following the same injection protocol, radioligands were administered in additional groups of mice, but this time animals were euthanized 30 min pi. The urine was immediately collected from the bladder using a prechilled syringe and transferred as before in a prechilled EDTA-containing Eppendorf Protein LoBind® centrifuge tube on ice (40 µL, 50 mM Na2EDTA solution) and 0.1 mL of physiological saline. Urine proteins were precipitated by adding chilled MeCN in a 1/1 v/v ratio followed by a 10 min centrifugation step (15,000× g/4 °C). The supernatant was then collected and treated following the blood sample workup procedure. Aliquots of the Millex-GV filtrate (containing >90% of total urine activity) were analyzed by radio-HPLC, adopting the aforementioned conditions. Results were calculated as the average percentage of intact radioligand ± SD derived from three independent experiments.

[2] = system: SCID mice bearing twin HEK293-CCK2i4svR and wtHEK293 tumors; assay: Biodistribution in SCID mice bearing twin HEK293-CCK2i4svR and wtHEK293 xenografts; assay type: in vivo
Method in brief: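 Uptake is expressed as %IA/g (mean ± SD, n = 4) from gamma counting of blood, organs and tumours collected at set times: 1, 4 and 24 h pi for ^67Ga, 4 and 24 h for ^111In (±gelofusine), 4–96 h for ^177Lu. Radioligands were given iv at 7–40 pmol to SCID mice bearing twin CCK2i4svR-transfected and wild-type HEK293 xenografts.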

[3] = system: HEK293-CCK2i4svR and wtHEK293 xenografts; assay: SPECT/CT of HEK293-CCK2i4svR and wtHEK293 xenografts; assay type: in vivo, mice; settings: 4 h and 24 h pi
Procedure: For SPECT/CT imaging, six mice bearing twin HEK293-CCK2i4svR and wtHEK293 tumors were injected in the tail vein with a bolus containing [^111In]In-GAS1/2/3 (100 μL, 9–12 MBq associated with 3 nmol total injected analog in-vehicle: saline/EtOH 9/1 v/v). Mice were euthanized at 4 h and 24 h pi. Tomographic SPECT/CT imaging was performed with the y-CUBE/x-CUBE systems (Molecubes, Belgium). The SPECT system is based on monolithic NaI detectors attached to SiPMs, with a 0.6 mm intrinsic resolution. The CT system is based on a structured CMOS detector of CsI with pixels of 75 µm and operates between 35–80 kVp, 10–500 µA tube current, with a 33 µm fixed focal spot size. SPECT scans were acquired 4 h pi and 24 h pi, with a 40–50 min duration protocol based on the injected activity, and each SPECT scan was succeeded by a CT scan, following General-Purpose protocol under 50 kVp, for co-registration purposes. SPECT images were reconstructed using the MLEM reconstruction method with a 250 µm voxel size and 500 iterations. CT images were reconstructed using the ISRA reconstruction method with a 100 µm voxel size.
Images were exported and post-processed on VivoQuant software, version 4.0 (Invicro, Boston). A smoothing median filter (0.6 mm, spherical window) was applied to the images, and the bladder was removed for consistency purposes. Normalization of images was performed (i.e., all images having the same color scale range values) to achieve a direct visual comparison between the different groups.

[4] = 4 h + Gelo (Gelofusine-treated mice)
[5] = 24 h + Gelo (Gelofusine-treated mice)

Biodistribution, Blood [2, 4]: 6.29 ± 1.08 %IA/g
Biodistribution, CCK2i4svR(+) Tumor [2, 4]: 7.67 ± 0.61 %IA/g
Biodistribution, CCK2i4svR(-) Tumor [2, 4]: 1.72 ± 0.30 %IA/g
Biodistribution, Femur [2, 4]: 0.99 ± 0.17 %IA/g
Biodistribution, Heart [2, 4]: 1.42 ± 0.21 %IA/g
Biodistribution, Intestines [2, 4]: 9.48 ± 0.99 %IA/g
Biodistribution, Kidneys [2, 4]: 21.90 ± 3.97 %IA/g
Biodistribution, Liver [2, 4]: 4.56 ± 0.49 %IA/g
Biodistribution, Muscle [2, 4]: 0.47 ± 0.04 %IA/g
Biodistribution, Pancreas [2, 4]: 3.00 ± 0.58 %IA/g
Biodistribution, Spleen [2, 4]: 1.32 ± 0.20 %IA/g
Biodistribution, Stomach [2, 4]: 0.94 ± 0.15 %IA/g
Biodistribution, Blood ([2]; 4 h pi): 6.40 ± 0.75 %IA/g
Biodistribution, CCK2i4svR(+) Tumor ([2]; 4 h pi): 8.91 ± 1.59 %IA/g
Biodistribution, CCK2i4svR(-) Tumor ([2]; 4 h pi): 1.82 ± 0.25 %IA/g
Biodistribution, Femur ([2]; 4 h pi): 1.15 ± 0.10 %IA/g
Biodistribution, Heart ([2]; 4 h pi): 1.61 ± 0.23 %IA/g
Biodistribution, Intestines ([2]; 4 h pi): 9.71 ± 0.42 %IA/g
Biodistribution, Kidneys ([2]; 4 h pi): 29.55 ± 3.64 %IA/g
Biodistribution, Liver ([2]; 4 h pi): 5.42 ± 0.89 %IA/g
Biodistribution, Lungs ([2]; 4 h pi): 3.27 ± 0.46 %IA/g
Biodistribution, Muscle ([2]; 4 h pi): 0.56 ± 0.08 %IA/g
Biodistribution, Pancreas ([2]; 4 h pi): 2.99 ± 0.96 %IA/g
Biodistribution, Spleen ([2]; 4 h pi): 1.49 ± 0.14 %IA/g
Biodistribution, Stomach ([2]; 4 h pi): 1.31 ± 0.21 %IA/g
Biodistribution, Blood [2, 5]: 0.15 ± 0.02 %IA/g
Biodistribution, CCK2i4svR(+) Tumor [2, 5]: 2.92 ± 0.37 %IA/g
Biodistribution, CCK2i4svR(-) Tumor [2, 5]: 0.45 ± 0.09 %IA/g
Biodistribution, Femur [2, 5]: 0.25 ± 0.03 %IA/g
Biodistribution, Heart [2, 5]: 0.22 ± 0.03 %IA/g
Biodistribution, Intestines [2, 5]: 0.75 ± 0.06 %IA/g
Biodistribution, Kidneys [2, 5]: 11.51 ± 2.64 %IA/g
Biodistribution, Liver [2, 5]: 0.95 ± 0.12 %IA/g
Biodistribution, Lungs [2, 5]: 0.44 ± 0.07 %IA/g
Biodistribution, Muscle [2, 5]: 0.08± 0.01 %IA/g
Biodistribution, Pancreas [2, 5]: 0.30 ± 0.05 %IA/g
Biodistribution, Spleen [2, 5]: 0.56 ± 0.17 %IA/g
Biodistribution, Stomach [2, 5]: 0.35 ± 0.06 %IA/g
Biodistribution, Blood ([2]; 24 h pi): 0.13 ± 0.02 %IA/g
Biodistribution, CCK2i4svR(+) Tumor ([2]; 24 h pi): 2.78 ± 0.43 %IA/g
Biodistribution, CCK2i4svR(-) Tumor ([2]; 24 h pi): 0.41 ± 0.10 %IA/g
Biodistribution, Femur ([2]; 24 h pi): 0.24 ± 0.04 %IA/g
Biodistribution, Heart ([2]; 24 h pi): 0.22 ± 0.01 %IA/g
Biodistribution, Intestines ([2]; 24 h pi): 0.68 ± 0.15 %IA/g
Biodistribution, Kidneys ([2]; 24 h pi): 10.16 ± 2.30 %IA/g
Biodistribution, Liver ([2]; 24 h pi): 0.96 ± 0.22 %IA/g
Biodistribution, Lungs ([2]; 24 h pi): 0.60 ± 0.37 %IA/g
Biodistribution, Muscle ([2]; 24 h pi): 0.08 ± 0.01 %IA/g
Biodistribution, Pancreas ([2]; 24 h pi): 0.29 ± 0.03 %IA/g
Biodistribution, Spleen ([2]; 24 h pi): 0.51 ± 0.09 %IA/g
Biodistribution, Stomach ([2]; 24 h pi): 0.36 ± 0.14 %IA/g
SPECT/CT uptake in CCK2i4svR expressing tumors [3]: Intense uptake
SPECT/CT uptake in wtHEK293 tumors devoid of CCK2i4svR expression [3]: no uptake is evident
SMILES: CC(C)(C)C(=O)CN1C(=O)[C@H](NC(=O)Nc2cccc(C(=O)NCCOCCOCCOCCNC(=O)[C@@H](CCC(=O)O)NC(=O)CCC(C(=O)[O-])N3CCN(CC(=O)[O-])CCN(CC(=O)[O-])CC3)c2)CN(C2CCCCC2)c2ccccc21.[111In+3] (stereo partly drawn) [[^111In]In-GAS2]
Intact radioligand in blood [1]: 73.1 ± 1.8% and 73.1 ± 1.8 (3) % and 98.3 ± 0.3 (3) %
